The results in this text go back to patent publication US12076417B2, “Plasma-derived nanoparticles” (NANOMEDX, INC., priority 2016, dated 2024).

In series [1] the test system is mice. Put plainly: IVIS fluorescence imaging of ICG after tail vein injection. The note with it: mouse, in vivo. Here is the method: In another animal experiment, mice were divided randomly into 3 groups: • 1) nanoP^3 only; • 2) nanoP^3 and ICG; or • 3) ICG only.
Following closure of the incision with silk sutures, each mouse was administered with 100 μL of the corresponding sample groups via tail vein injection: nanoP^3 control (9×10^9 nanoP^3), nanoP^3-ICG (9×10^9 nanoP^3 with 2.5 μg of ICG/10^9 nanoP^3) or ICG control (22.5 μg). Non-invasive imaging using IVIS was carried out for detection of fluorescence at Ex/Em=780 nm/820 nm.

Series [2] is described as follows: Binding kinetics of ICG to nanoP^3. In kind it is physicochemical. As for the experimental part: The binding kinetics associated with the simple nanoP^3 conjugation process can be assessed by measuring the amount of bound cargo at different incubation time points and temperatures. NanoP^3 material was conjugated with the precise amount of indocyanine green (ICG) which was calculated in Example 5 to saturate the nanoparticle surface at a monolayer, i.e. 1.9×10^6 ICG molecules on a single nanoP^3 particle (99 nm radius). […] For this experiment, the plasma parameters were set at Q=3, 10 and 3 sccm for acetylene, nitrogen and argon, 150 mTorr and 50 W. The incubation of nanoP^3 (10^9 nanoP^3/mL) with ICG was performed at room temperature, in RT-PCR grade water (pH=7) for 1 hour.

Series [3] relates to Horseradish Peroxidase (HRP). The series can be described thus: Activity of conjugated HRP detected with ABTS at 405 nm. The note with it: 0.5 μg/mL HRP, 4 hours incubation, after washing off free HRP. The series is classed as biochemical. As for the experimental part: NanoP^3 was collected from the nanoparticle collector under sterile conditions in a tissue culture hood with RT-PCR Grade water. The concentration of nanoparticles was measured by NanoSight LM10. Nanoparticles were then conjugated to desired antibodies (Goat anti-Rat IgG-Cy5; abcam ab6565; and Goat anti-Rabbit IgG; abcam ab150089 at 1:100 dilution), drugs (Doxorubicin: Sigma-Aldrich, D1515 at 100 μg/ml and Paclitaxel-Oregon Green 488, Invitrogen P22310 at 5 μg/mL) or proteins (Peroxidase from Horseradish; Sigma-Aldrich HRP; P6782 at 0.5 μg/mL) for up to 16 hours at 4° C., protected from light. Conjugation of HRP to 150 nm gold nanoparticles was performed (Cytodiagnostics; G-150) in an identical fashion. The samples were gently agitated using Bio RS-24 mini-rotator. […] The fluorescent intensity was measured using a plate reader, the Ex/Em were set in accordance to the fluorescent dye tag on each antibody or drug. […] For detection of HRP, conjugated nanoparticles and respective controls were incubated with ABTS (Sigma-Aldrich; A1888) and hydrogen peroxide (Merck; 386790) until colour was visible and measured at 405 nm. […]
Nanoparticles of nanoP^3 and gold (GNPs) were conjugated with horseradish peroxidase (HRP). These were detected by incubation with 2,2′-azino-bis(3-ethylbenzothiazoline-6-sulphonic acid) (ABTS). […]

As to `CC1(C)C(/C=C/C=C/C=C/C=C2\N(CCCCS(=O)(=O)[O-])c3ccc4ccccc4c3C2(C)C)=[N+](CCCCS(=O)(=O)[O-])c2ccc3ccccc3c21.[Na+]` [ICG, sodium 4-[2-[(1E,3E,5E,7Z)-7-[1,1-dimethyl-3-(4-sulfonatobutyl)benzo[e]indol-2ylidene]hepta-1,3,5-trienyl]-1,1-dimethylbenzo[e]indol-3-ium-3-yl]butane-1-sulfonate], the “fluorescence by IVIS at Ex/Em=780 nm/820 nm” value in series [1] is “absent”. Further, the “time to surface saturation” value in series [2] (both 24° C. and 4° C.) was “less than 5 minutes”. For the same compound, the “total cargo immobilized on nanoP^3 within first 30 seconds” value came out at 60% in series [2] (incubation at 4° C.) and 90% in series [2] (incubation at 24° C.).

Turning to Horseradish Peroxidase [HRP alone], in series [3], the “HRP activity (absorbance at 405 nm with ABTS)” value was “below background levels of activity”.
